Assay results as given in patent US5804576A, “Derivatives of 5-androsten-17-ones and 5-androstan-17-ones” (Research Corporation Technologies, Inc., priority 1986, dated 1998).
Where “and” joins values, the source holds several entries; their conditions need not be identical. Identical values can stand only once. Entries after “also recorded” stand apart in the source; their conditions may differ.

Key:
[1] = test system: DMBA-initiated and TPA-promoted skin papilloma formation in mice; conditions: mouse, in vivo; cited from earlier work
[2] = test system: DMBA produced papillomas and carcinomas; conditions: topical; cited from earlier work
[3] = test system: TPA (Tumor Promoter) Stimulation of Mouse Epidermal DNA; assay: Inhibition of TPA stimulation of mouse epidermal DNA synthesis (3H-thymidine incorporation), oral; assay type: in vivo, mouse (ICR male)
Outline: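 Shaved male ICR mice (7-9 weeks) got steroid orally in sesame oil (0.5 ml/mouse), then topical TPA (10 μg in acetone) 1 h later. After 20 h, i.p. 60 μCi ³H-thymidine 20 min before sacrifice; epidermal DNA labelling expressed as cpm per μg DNA (diphenylamine assay).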

[4] = test system: many different cell lines in culture; conditions: 10^-5 M to 10^-4 M; cited from earlier work
[5] = test system: breast, lung, and colon tumors; conditions: approximately 400 mg/kg daily, long-term; cited from earlier work
[6] = test system: [3H]DMBA binding to skin DNA; assay: [3H]DMBA binding to skin DNA, oral steroid; assay type: in vivo, mouse (male A/J)
Protocol: (§1) Male A/J mice were orally intubated with steroid suspended in sesame oil (0.5 ml/mouse) at the indicated dose. Mice not receiving steroid were given sesame oil alone. Food restricted mice received approximately 60% of food of Ad libitum fed for two weeks. One hour after oral intubation, topical [^3 H]DMBA was applied to the skin, and the amount bound to DNA was determined 12 hours later as described in Table 4.
as §1, with “alone.” for “alone. Food restricted mice received approximately 60% of food of Ad libitum fed for two weeks.”

[7] = test system: [3H]DMBA binding to skin DNA; assay: [3H]DMBA binding to skin DNA, oral steroid; assay type: in vivo, mouse (male A/J); conditions: four weeks treatment with 400 mg/kg
C57BL/KsJ-db/db mice = conditions: 0.4% of the diet; cited from earlier work
[8] = test system: seminal vesicles plus prostate glands; assay: Androgenic and anti-androgenic activity (seminal vesicle plus prostate weight); assay type: in vivo, mouse (male A/J); conditions: con't. experiment; five weeks; DHEA 0.54%; n = 5
[9] = test system: mammalian glucose-6-phosphate dehydrogenase (G6PDH); conditions: cited from earlier work
rat uterus = conditions: 60 mg/kg s.c. for 3 days, sexually immature rats; cited from earlier work
[10] = test system: rat uterus; mouse seminal vesicle plus prostate; conditions: prolonged administration; cited from earlier work
HeLa cell strain, TCRC-2 = conditions: HeLa TCRC-2; cited from earlier work
[11] = test system: New Zealand Black (NZB) mice; conditions: long-term treatment; cited from earlier work
VY-A^vy /a mice = conditions: long-term administration; cited from earlier work

C[C@H]1CC[C@@]2(C)C(=CC[C@@H]3[C@@H]2CC[C@]2(C)C(=O)CC[C@@H]32)C1 [Compound 16, 3β-methyl-5-androsten-17-one]
inhibition of DMBA-initiated and TPA-promoted skin papilloma formation (in words) [1]: inhibit | inhibition of DMBA produced papillomas and carcinomas (in words) [2]: inhibits DMBA produced papillomas and carcinomas | activity relative to DHEA (TPA stimulation of epidermal DNA synthesis) ([3]; oral dose-response, as active as DHEA): about 3 X

C[C@]12CC[C@H](O)CC1=CC[C@@H]1[C@@H]2CC[C@]2(C)C(=O)CC[C@@H]12 [DHEA, 3β-Hydroxy-5-androst-en-17-one, reference compound]
growth of cell lines in culture (in words) [4]: slows the growth of many different cell lines in culture | tumor development (in words) [5]: inhibit the development of breast, lung, and colon tumors | SPECIFIC ACTIVITY ([3H]DMBA bound to skin DNA) ([6]; 400 mg/kg p.o., 12 hours): 73.1 ± 16.5 cpm/ug DNA and 92 ± 17.6 cpm/ug DNA | 3H-DMBA binding to skin DNA (in words) ([6]; oral, single administration): does not inhibit ^3 H-DMBA binding to skin DNA; also recorded: inactive | 3H-DMBA binding to skin DNA (in words) [7]: does inhibit ^3 H-DMBA binding to skin DNA | hypoglycemic effect (in words) (C57BL/KsJ-db/db mice): marked hypoglycemic effect | lifespan (in words) (C57BL/KsJ-db/db mice): significantly prolonged their lifespan | Mean Seminal Vesicle plus Prostate Weight ± S.D. [8]: 5.02 ± 0.41 mg/100 gm body weight | inhibition of DMBA-initiated and TPA-promoted skin papilloma formation (in words) [1]: inhibit | inhibition of DMBA produced papillomas and carcinomas (in words) [2]: inhibits DMBA produced papillomas and carcinomas | inhibition of mammalian G6PDH (in words) [9]: potent non-competitive inhibitor of mammalian glucose-6-phosphate dehydrogenase | uterine enlargement (in words) (rat uterus): produces uterine enlargement | estrogenic effect (in words) [10]: evidence of an estrogenic effect after prolonged administration | sensitivity to growth inhibition (in words) (HeLa cell strain, TCRC-2): particularly sensitive to DHEA-induced growth inhibition | rate of development of the autoimmune anemia (in words) [11]: significantly inhibits the rate of development of the autoimmune anemia | blocking the TPA stimulation in DNA synthesis rate (in words) ([3]; 200 mg/kg or 100 mg/kg oral): not at 200 mg/kg or 100 mg/kg | blocking the TPA stimulation in DNA synthesis rate (in words) ([3]; 400 mg/kg oral): active at blocking the TPA stimulation in DNA synthesis rate at 400 mg/kg | TPA stimulation in 3H-thymidine incorporation (in words) ([3]; oral, single administration): does not inhibit the TPA stimulation in epidermal ^3 H-thymidine incorporation to a degree comparable; also recorded: inactive | development of obesity (in words) (VY-A^vy /a mice): prevented the development of obesity without suppressing appetite
